These results are taken from publication PMC7998250, “Temperate Zone Plant Natural Products—A Novel Resource for Activity against Tropical Parasitic Diseases” (Pharmaceuticals, 2021).

The subject of series [1] is HepG2 cells. The arrangement: method as in PMID 31617221. To be noted: cited from earlier work.
Series [2] has as its system P. falciparum Dd2Luc intraerythrocytic trophozoites. Description: Initial screen, intraerythrocytic P. falciparum, Malaria SYBR-Green I fluorescence assay. To be noted: Plasmodium falciparum, 48 h. The series is classed as cell-based, Plasmodium falciparum. The procedure, abridged: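 L. mexicana axenic amastigotes at 1 × 10^6 cells/mL exposed 72 h to compounds at 2 μM, growth read by Alamar Blue; P. falciparum trophozoites at 0.5% parasitaemia, 2% haematocrit, 48 h at 2 μM, SYBR-Green I read-out. Growth normalised to 1% DMSO; hits ≥50% growth reduction.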

Series [3] relates to L. mexicana axenic amastigotes. The experiment in a line: Initial screen, L. mexicana axenic amastigotes, Alamar Blue. The series is classed as cell-based, Leishmania mexicana. The procedure, abridged: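 Purified temperate plant natural products from a commercial library (1 mg/mL in DMSO) were tested against Leishmania mexicana axenic amastigotes at a final 2 μM. Parasites were seeded at 1 × 10^6 cells/mL in 96-well plates containing 200 μL culture and incubated 72 h. Growth was measured by Alamar Blue and normalised to DMSO controls (1% v/v), with triplicates over two biological replicates (n = 6).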
(In general: Resazurin is reduced to fluorescent resorufin, in cell work by metabolically active cells.)

The test system of series [4] is HepG2 cells. Description: Cytotoxicity CC50, HepG2, Alamar Blue. To be noted: 48 h. The procedure, abridged:
(§1)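 Human hepatoma cells seeded at 1 × 10^5 cells/mL with two-fold serial compound dilutions, incubated 48 h at 37 °C, 5% CO2 in DMEM/10% FBS. Viability read by Alamar Blue. CC50 estimated from viability normalised to untreated controls versus log concentration.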

In series [5] the test system is L. mexicana axenic amastigotes. The experiment in a line: Concentration-response EC50, L. mexicana axenic amastigotes (WT). The series is classed as cell-based, Leishmania mexicana. Conditions: read-out: L. mexicana EC50; axenic amastigotes, 72 h.
Excerpt: (§3) Initial hits from the parasite panel screen were taken forward in log concentration versus normalised response assays to estimate the half maximal effective concentration (EC50) in hit species as well as the half maximal cytotoxic concentrations (CC50) in the human hepatoma cell line HepG2 as a preliminary test for selectivity. Using CC50/EC50 to define the selectivity index (SI), the selectivity for each compound in a defined species compared to a human cell line was estimated and compared to the EC50 (Figure 3).
(§4) EC50 values were determined by serial two-fold dilution of each compound in 96 well plates. Culture conditions and viability assays were as stated for the initial screen, with some exceptions. L. mexicana and L. donovani axenic amastigotes were seeded at 2 × 10^6 cell/s mL, T. brucei and T. evansi were seeded at 2 × 10^5 cells/mL. For cytotoxicity studies, HepG2 cells were seeded at 1 × 10^5 cells/mL, incubated for 48 h and viability was assessed using the Alamar Blue assay [66, 67]. […] Normalised growth and viability data (compared to untreated controls) were plotted against Log10 concentration to estimate EC50 in GraphPad (Prism v6).
In series [6] the test system is T. brucei. The experiment in a line: Concentration-response EC50, T. brucei. The series is classed as cell-based, Trypanosoma brucei brucei.
Excerpt: as §3, §4
Series [7] deals with T. evansi bloodstream form. Description: Initial screen, T. evansi bloodstream form, Alamar Blue. To be noted: initial screen; for activity at 1 µM: Trypanosoma evansi. The series is classed as cell-based, Trypanosoma evansi. In a few lines:
(§2)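 Bloodstream-form T. evansi Antat 3/3 and T. brucei Lister 427 were grown in HMI-11 with 10% FBS at 37 °C. Parasites were plated at 1×10^5 cells/mL with compound at 1 μM (T. evansi) or 2 μM (T. brucei) for 48 h, and growth was read by Alamar Blue relative to 1% DMSO controls (n = 6).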

For series [8], the system named is activated monocyte cell line (THP-1). Description: Cytotoxicity CC50, differentiated THP-1, Alamar Blue. The series is classed as cell-based, human. To be noted: differentiated THP-1, 48 h; read-out: THP1 CC50. The source says: The four lanosterone-like sterols derived from the Noble Fir Abies procera (700022, 700107, 700136) and the Grand Fir Abies grandis (700240) were the only initial compounds taken forward for L. mexicana due to their nanomolar activity and apparent low cytotoxicity (Figure 3a). […] Understanding the impact of the ring-opened lactone head group in this compound compared to the other three warrants further analysis in exploring their structure-activity relationships. These four sterols were also tested for growth inhibitory activity against L. donovani axenic amastigotes. […] As Leishmania spp. amastigotes typically reside with macrophages, further cytotoxicity assays with these sterols were performed against an activated monocyte cell line (THP-1) (Figure 4b). […]

For series [9], the system named is T. brucei bloodstream form. Description: Initial screen, T. brucei bloodstream form, Alamar Blue. The series is classed as cell-based, Trypanosoma brucei brucei. Conditions: for initial hit against T. brucei: growth reduced by ≥50%; for inhibition of growth at 2 µM: read-out: initial hit T.b. The procedure, abridged: as §2
The test system of series [10] is P. falciparum Dd2Luc. On the set-up: method as in PMID 27999014. To be noted: control compounds; cited from earlier work.
The nature of series [11]: Cytotoxicity CC50, HepG2, Alamar Blue. To be noted: human. In a few lines:
as §1

For series [12], the system named is T. b. rhodesiense. On the set-up: method as in PMID 29896963. To be noted: cited from earlier work.
The test system of series [13] is P. falciparum NF54 strain. On the set-up: method as in PMID 29896963. Conditions: drug sensitive NF54 strain; cited from earlier work.
The mark [14] stands for this setting: read-out: mean % growth, P. falciparum, initial screen, compared to a normalised control with same concentration of DMSO solvent.
Where [15] appears, read: initial screen, compared to a normalised control with same concentration of DMSO solvent.
The mark [16] stands for this setting: Trypanosoma brucei, 48 h, bloodstream form, 48 h; read-out: T. brucei EC50.
Where [17] appears, read: Trypanosoma brucei, 2 μM, x = initial hit.

A word on the EC50: it is the concentration needed to bring the measured effect to its halfway point.

Where two headings read alike, the source gives them in different places.

For the compound `COc1cc(C[C@H]2C(=O)OC[C@@H]2Cc2ccc(OC)c(OC)c2)ccc1O` [arctigenin], the “antiproliferative activity against HepG2 cells” value in series [1] is given as “potent antiproliferative activity”.
Take `C=C1C(=O)OC2CC(C)C3C=CC(=O)C3(C)C(OC(C)=O)C12` (stereo not shown) [Compound 701154]: in series [2] (setting [14]), the activity at 2 µM worked out at 66.5%. Further, the “initial hit against L. mexicana” value in [3] (2 μM, growth inhibited by ≥80%) is listed as “initial hits”. Further, the inhibition of growth at 2 µM in [3] (Leishmania mexicana, read-out: initial hit L.m) is over 80%; in [9] (Trypanosoma brucei), over 50%. For the same compound, in series [3] (setting [15]), the “mean % growth, L. mexicana” value is on record as -0.64%. Besides, the CC50 is 4200 nM in [4] (read-out: HepG2 CC50) and 1500 nM in [8]. For the same compound, the EC50 in series [5] was determined as 950 nM; in series [6] (read-out: T. brucei EC50; bloodstream form, 48 h), 1600 nM. In addition, the “mean % growth, T. evansi” value in series [7] (compared to a normalised control with same concentration of DMSO solvent) amounted to 79.8%. In addition, in series [9] (2 μM), the “initial hit against T. brucei” value is recorded as “initial hits”. Moreover, the “mean % growth, T. b. brucei” value in [9] (setting [15]) amounted to 14.7%.
In the case of `C[C@H]1[C@@H](O)O[C@@H]2O[C@@]3(C)CC[C@H]4[C@H](C)CC[C@@H]1[C@@]24OO3` [dihydroartemisinin], the “rate of kill of control antimalarials” value in series [10] is “rapid initial rate of kill with no lag in action”.
Consider `O=C1C(O)=C([C@H]2CC[C@H](c3ccc(Cl)cc3)CC2)C(=O)c2ccccc21` [atovaquone], for which the “rate of kill of control antimalarials” value in series [10] is “slow killing compound with 48 h lag in action”.
As to `CC(=O)OC1C(C)OC(OC2C(OC(=O)C3CC[C@@H]4[C@H](C3)OC3(CC(OC(=O)/C=C/c5ccccc5)[C@@H](C)CO3)C4(O)CO)OC(C)C(O)C2OC(C)=O)C(O)C1O` (stereo partly shown) [Compound 700035], in [2] (read-out: %growth P. falciparum, mean % growth compared to a normalised control with same concentration of DMSO solvent, initial screen), the activity at 2 µM was 90.1%. In series [4] (read-out: HepG2 CC50), the CC50 came out at 15000 nM. In series [11] (pH 7, HepG2 CC50, 48 h), this compound gave a CC50 at 48 h of 15200 nM. In addition, the EC50 in series [6] (setting [16]) was 350 nM; in [6] (bloodstream form, 48 h; read-out: T. brucei EC50), 360 nM. Besides, the activity at 1 µM in [7] (mean % growth compared to a normalised control with same concentration of DMSO solvent, read-out: % growth T. evansi) was 105%. For the same compound, the “initial hit against T. brucei” value in series [9] (2 μM) is reported as “initial hits”. Also, the inhibition of growth at 2 µM in [9] (setting [17]) was over 50%.
`CC(C)c1cc(CC[C@@H]2C(=O)CCCC2(C)C)c(O)cc1O` [leriifoliol]: the “activity against T. b. rhodesiense” value in series [12] is “micromolar activity”. The “activity against P. falciparum” value in series [13] is reported as “submicromolar activity”.
As to `COC(=O)C1=COC(O)C2C1CC(OC(=O)/C=C/c1ccc(O)cc1)C2C` (stereo not shown) [Compound 701145], the activity at 2 µM in series [2] (setting [14]) turned out to be 96%; in series [3] (Leishmania mexicana, read-out: mean % growth, L. mexicana, initial screen, compared to a normalised control with same concentration of DMSO solvent) it was 48.9%; in series [9] (Trypanosoma brucei, initial screen, compared to a normalised control with same concentration of DMSO solvent, read-out: mean % growth, T. b. brucei), 3.4%. Also, in series [4] (human, pH 7), the CC50 was 28000 nM. The same compound returned a CC50 at 48 h in [11] (pH 7, HepG2 CC50) of 27800 nM. Also, the EC50 in [6] (setting [16]) is 520 nM. The activity at 1 µM in series [7] (compared to a normalised control with same concentration of DMSO solvent, read-out: mean % growth, T. evansi) is 118%. In addition, the “initial hit against T. brucei” value in series [9] (2 μM) is reported as “initial hits”. Moreover, the inhibition of growth at 2 µM in [9] (setting [17]) was over 50%.
